In patent publication EP4632836A1, “BATTERIES FOR OPERATION ACROSS TEMPERATURES AND RELATED METHODS” (Massachusetts Institute of Technology, priority 2024, dated 2025):

Test: Electrode soaking test in electrolyte (coloration of electrolyte)
Type: physicochemical
Settings: electrodes with 90 wt.% of TAQ soaked in 2 mL of 1 M LiTFSI in DOL/DME (1/1 vol.%), -20 °C to 70 °C, 24 hours; no coloration of electrolyte
Text: The high-temperature performance of organic cathode materials for LIBs depends on the solubility of the active materials in organic electrolytes as dissolution leads to rapid capacity decay, dramatically reducing the cycling lifetime. On the other hand, the performance of LIBs at low temperatures is heavily dependent on the charge transport and transfer resistance, as well as the solid-state Li^+ diffusion resistance of the electrode. The solubility of TAQ electrodes and deeply lithiated TAQ (Lix-TAQ, 3<x<4) electrodes in a commercially available electrolyte (1 M LiTFSI in DOL/DME (1/1 vol.%)) under various temperatures was evaluated (FIGS. 24C and 31). […] The electrodes were soaked in 2 mL of electrolyte, and kept under various temperatures ranging from -20 °C to 70 °C for 24 hours. […] This insolubility stems from strong intermolecular hydrogen bonding between TAQ molecules and interlayer π- π stacking, which both persist even upon deep lithiation.

With `Nc1c(N)c(=O)c2[nH]c3c(=O)c(N)c(N)c(=O)c3[nH]c2c1=O` [TAQ, bis-tetraaminobenzoquinone] the solubility of electrodes was “complete insolubility”.
